Reference: US8013006B2

The compounds below were run on HCV replicon (assay: microbe, parasite or virus in culture). Settings: Hepatitis C virus, 48 h, read-out: Replicon IC5Os.
Format: cell-based
With `CCn1c(-c2ccc(NC(=O)OCCCl)cc2)c(C#N)c2ccc(OC)cc21` [Compound 637] the IC50 was < 500 nM. `CCCS(=O)(=O)Nc1ccccc1-c1c(C#N)c2ccc(OC)cc2n1CC` [Compound 662] was tested, and the IC50 was < 500 nM. With `CCn1c(-c2ccc(N(C)S(=O)(=O)CCN3CCCC3)cc2)c(C#N)c2ccc(OC)cc21` [Compound 697] the IC50 was < 500 nM. Work on `CCn1c(-c2ccc(N(C)S(=O)(=O)CCN3CCSCC3)cc2)c(C#N)c2ccc(OC)cc21` [Compound 698] yielded an IC50 of 500 to 2000 nM. For `COc1ccc2c(C#N)c(-c3ccc(N4CCCS4(=O)=O)cc3)n(CC3CC3)c2c1` [Compound 716, 2-[4-(1,1-dioxidoisothiazolidin-2-yl)phenyl]-1-cyclopropylmethyl-6-methoxy-1H-indole-3-carbonitrile], the IC50 was 500 to 2000 nM. In the case of `CCOC(=O)Nc1cccc(-c2c(C#N)c3ccc(OC(F)F)cc3n2CC2CC2)c1` [Compound 745], the IC50 is reported as < 500 nM. For `CCn1c(-c2ccc(NC(=O)c3ccno3)cc2)c(C#N)c2ccccc21` [Compound 755], the IC50 was < 500 nM. With `CCn1c(-c2ccc(NC(=O)c3snnc3C)cc2)c(C#N)c2ccccc21` [Compound 756] the IC50 was < 500 nM. `CCC(=O)Nc1ccc(-c2c(C#N)c3ccc(OC(C)C)cc3n2CC)cc1` [Compound 759] was tested, and the IC50 was < 500 nM. `CCn1c(-c2ccc(NC(=O)C3CCC3)cc2)c(C#N)c2ccc(OC(C)C)cc21` [Compound 760] was tested, and the IC50 was < 500 nM.

Same assay, conditions: Replicon IC50 values are determined by firefly luciferase signal; bicistronic replicon, 2 days; read-out: Replicon IC5Os
In the case of `CC#CCOC(=O)Nc1cccc(-c2c(C#N)c3ccc(OC(C)C)cc3n2CC)c1` [Compound 592], the IC50 is reported as > 2000 nM. `CCn1c(-c2cccc(NC(=O)OCc3ccccc3)c2)c(C#N)c2ccc(OC(C)C)cc21` [Compound 593] was tested, and the IC50 was > 2000 nM. For `CCn1c(-c2cccc(NC(=O)OCCl)c2)c(C#N)c2ccc(OC(C)C)cc21` [Compound 594], the IC50 was > 2000 nM. `CCCCOC(=O)Nc1cccc(-c2c(C#N)c3ccc(OC(C)C)cc3n2CC)c1` [Compound 595] was tested, and the IC50 was > 2000 nM. `C=CCOC(=O)Nc1cccc(-c2c(C#N)c3ccc(OC(C)C)cc3n2CC)c1` [Compound 596] showed an IC50 of 500 to 2000 nM. In the case of `C=CC(C)OC(=O)Nc1cccc(-c2c(C#N)c3ccc(OC(C)C)cc3n2CC)c1` (centres unmarked) [Compound 597], the IC50 is reported as > 2000 nM. In the case of `CCCn1c(-c2cccc(NS(=O)(=O)CC)c2)c(C#N)c2ccc(OC)cc21` [Compound 599], the IC50 is reported as > 2000 nM. `CCCNC(=O)Nc1cccc(-c2c(C#N)c3ccc(OC)cc3n2CCC)c1` [Compound 600] was tested, and the IC50 was > 2000 nM. For `CCOC(=O)Nc1cc(-c2c(C#N)c3ccc(OC(C)C)cc3n2CC)ccc1OC` [Compound 603], the IC50 was > 2000 nM. In the case of `CCOC(=O)Nc1ccc(F)c(-c2c(C#N)c3ccc(OC(C)C)cc3n2CC)c1` [Compound 604], the IC50 is reported as > 2000 nM. `CCOC(=O)Nc1cccc(-c2c(C#N)c3cc(N4CCOCC4)ccc3n2CC)c1` [Compound 605] was tested, and the IC50 was > 2000 nM. `CCCS(=O)(=O)Nc1ccc(-c2c(C#N)c3cc(N4CCOCC4)ccc3n2CC)cc1` [Compound 608] was tested, and the IC50 was 500 to 2000 nM. For `CCn1c(-c2ccc(NS(=O)(=O)CC)cc2)c(C#N)c2cc(N3CCOCC3)ccc21` [Compound 609], the IC50 was 500 to 2000 nM. With `CCn1c(-c2ccc(NS(=O)(=O)CC(F)(F)F)cc2)c(C#N)c2cc(Cl)ccc21` [Compound 615] the IC50 was > 2000 nM. For `CCNC(=O)Nc1ccc(-c2c(C#N)c3cc(Cl)ccc3n2CC)cc1` [Compound 620], the IC50 was 500 to 2000 nM. With `CCCn1c(-c2ccc(NC(=O)OCC)cc2)c(C#N)c2ccc(OC)cc21` [Compound 624] the IC50 was 500 to 2000 nM. With `CCCOC(=O)Nc1ccc(-c2c(C#N)c3ccc(OC)cc3n2CCC)cc1` [Compound 625] the IC50 was < 500 nM. With `CCn1c(-c2cccc(NS(=O)(=O)CCCCl)c2)c(C#N)c2cc(Cl)ccc21` [Compound 629] the IC50 was > 2000 nM. Work on `CC(C)CCn1c(-c2ccc(NS(C)(=O)=O)cc2)c(C#N)c2cc(Cl)ccc21` [Compound 630] yielded an IC50 of 500 to 2000 nM. `C=Cn1c(-c2ccc(NS(C)(=O)=O)cc2)c(C#N)c2ccc(OC)cc21` [Compound 632] was tested, and the IC50 was 500 to 2000 nM. In the case of `C=Cn1c(-c2ccc(NS(=O)(=O)CCC)cc2)c(C#N)c2ccc(OC)cc21` [Compound 634], the IC50 is reported as 500 to 2000 nM. With `C=Cn1c(-c2ccc(NS(=O)(=O)CCCCl)cc2)c(C#N)c2ccc(OC)cc21` [Compound 636] the IC50 was < 500 nM. For `CCCn1c(-c2cccc(NS(=O)(=O)CCC)c2)c(C#N)c2ccc(OC)cc21` [Compound 639], the IC50 was > 2000 nM. In the case of `CCCn1c(-c2ccc(NC(=O)OCCF)cc2)c(C#N)c2ccc(OC)cc21` [Compound 640], the IC50 is reported as 500 to 2000 nM. `CCCn1c(-c2ccc(N(C)S(=O)(=O)CC)cc2)c(C#N)c2ccc(OC)cc21` [Compound 643] showed an IC50 of 500 to 2000 nM. In the case of `CCC(=O)Nc1ccc(-c2c(C#N)c3cc(OC)ccc3n2CC)cc1` [Compound 644], the IC50 is reported as > 2000 nM. `CCn1c(-c2ccc(NC(=O)c3ccc4c(c3)OCO4)cc2)c(C#N)c2ccccc21` [Compound 645] was tested, and the IC50 was > 2000 nM. Work on `CCn1c(-c2ccc(NC(=O)c3ccco3)cc2)c(C#N)c2ccccc21` [Compound 646] yielded an IC50 of 500 to 2000 nM. `CCn1c(-c2ccc(C(=O)Nc3ccc(Cl)cc3)cc2)c(C#N)c2cc(OC)ccc21` [Compound 647] was tested, and the IC50 was > 2000 nM. `CCn1c(-c2ccc(C(=O)Nc3ccc(Cl)c(Cl)c3)cc2)c(C#N)c2cc(OC)ccc21` [Compound 648] showed an IC50 of 500 to 2000 nM. `CCCn1c(-c2ccc(N3CCCS3(=O)=O)cc2)c(C#N)c2ccc(OC)cc21` [Compound 649] was tested, and the IC50 was 500 to 2000 nM. With `CCn1c(-c2ccc(NS(=O)(=O)CCN3CCSCC3)cc2)c(C#N)c2ccc(OC)cc21` [Compound 654] the IC50 was > 2000 nM. In the case of `COc1ccc2c(C#N)c(-c3ccc(NS(C)(=O)=O)cc3)n(CC3CCCC3)c2c1` [Compound 655], the IC50 is reported as > 2000 nM. `CCn1c(-c2ccc(N)cc2)c(C#N)c2ccc(OC(F)(F)F)cc21` [Compound 656] was tested, and the IC50 was > 2000 nM. With `CCn1c(-c2ccc(NS(=O)(=O)CC)cc2)c(C#N)c2c(Cl)cccc21` [Compound 657] the IC50 was > 2000 nM. Compound `N#Cc1c(-c2ccc(N3CCCS3(=O)=O)cc2)n(CC2CC2)c2cc(OC(F)F)ccc12` [Compound 659] has an IC50 of 500 to 2000 nM. `CC(C)Oc1ccc2c(C#N)c(-c3ccc(O)c(N)c3)[nH]c2c1` [Compound 663] was tested, and the IC50 was > 2000 nM. With `CCCOC(=O)Nc1ccc(F)c(-c2c(C#N)c3ccc(OC(C)C)cc3n2CC)c1` [Compound 664] the IC50 was > 2000 nM. For `CCn1c(-c2cc(NC(=O)OCCCl)ccc2F)c(C#N)c2ccc(OC(C)C)cc21` [Compound 665], the IC50 was > 2000 nM. In the case of `CCn1c(-c2cccc(CN(C)S(C)(=O)=O)c2)c(C#N)c2ccc(OC)cc21` [Compound 673], the IC50 is reported as > 2000 nM. `CCS(=O)(=O)Nc1ccc(-c2c(C#N)c3ccc(OC)cc3n2CCOC)cc1` [Compound 674] was tested, and the IC50 was > 2000 nM. For `CCn1c(-c2ccc3c(c2)CCN3)c(C#N)c2ccc(OC)cc21` [Compound 678], the IC50 was > 2000 nM. For `CCCS(=O)(=O)Nc1ccc(-c2c(C#N)c3ccc(OC(F)F)cc3n2CC2CC2)cc1` [Compound 682], the IC50 was 500 to 2000 nM. For `N#Cc1c(-c2ccc(NS(=O)(=O)CCCCl)cc2)n(CC2CC2)c2cc(OC(F)F)ccc12` [Compound 683], the IC50 was 500 to 2000 nM. With `CCS(=O)(=O)N(C)c1ccc(-c2c(C#N)c3ccc(OC)cc3n2C(C)C)cc1` [Compound 684] the IC50 was > 2000 nM. `CCCn1c(-c2ccc(N(C)S(=O)(=O)CC)cc2)c(C#N)c2ccc(OC(F)F)cc21` [Compound 685] gave an IC50 of 500 to 2000 nM. `CCS(=O)(=O)N(C)c1ccc(-c2c(C#N)c3ccc(OC)cc3n2CC2CC2)cc1` [Compound 686] gave an IC50 of 500 to 2000 nM. For `CCS(=O)(=O)N(C)c1ccc(-c2c(C#N)c3ccc(OC(F)F)cc3n2C)cc1` [Compound 687], the IC50 was < 500 nM. `COc1ccc2c(C#N)c(-c3ccc(N(C)S(C)(=O)=O)cc3)n(CC3CC3)c2c1` [Compound 688] was tested, and the IC50 was 500 to 2000 nM. Work on `CCS(=O)(=O)N(C)c1ccc(-c2c(C#N)c3ccc(OC)cc3n2C)cc1` [Compound 694] yielded an IC50 of 500 to 2000 nM. For `CCCn1c(-c2ccc(N(C)S(C)(=O)=O)cc2)c(C#N)c2ccc(OC)cc21` [Compound 695], the IC50 was 500 to 2000 nM. `COc1ccc2c(C#N)c(-c3ccc(N(C)S(C)(=O)=O)cc3)n(C(C)C)c2c1` [Compound 696] gave an IC50 of 500 to 2000 nM. For `CCCS(=O)(=O)N1CCc2cc(-c3c(C#N)c4ccc(OC)cc4n3CC)ccc21` [Compound 703], the IC50 was 500 to 2000 nM. For `CCn1c(-c2cccc(NS(=O)(=O)NCCCl)c2)c(C#N)c2ccc(OC)cc21` [Compound 704], the IC50 was > 2000 nM. In the case of `CCn1c(-c2cccc(N3CCNS3(=O)=O)c2)c(C#N)c2ccc(OC)cc21` [Compound 705], the IC50 is reported as > 2000 nM. `CCCCn1c(-c2ccc(NS(=O)(=O)CCC)cc2)c(C#N)c2ccc(OC)cc21` [Compound 708] was tested, and the IC50 was 500 to 2000 nM. With `CCn1c(-c2ccc3[nH]ccc3c2)c(C#N)c2ccc(OC)cc21` [Compound 712] the IC50 was > 2000 nM. `N#Cc1cn(CC2CC2)c2cc(OC(F)(F)F)ccc12` [Compound 714] showed an IC50 of 500 to 2000 nM. `CCn1c(-c2ccc(NS(C)(=O)=O)cc2)c(C#N)c2ccc(OC(F)(F)F)cc21` [Compound 715] was tested, and the IC50 was < 500 nM. With `COc1ccc2c(C#N)c(-c3ccc(S(=O)(=O)NC4CC4)cc3)n(CC3CCCC3)c2c1` [Compound 718] the IC50 was 500 to 2000 nM. In the case of `COc1ccc2c(C#N)c(-c3ccc(S(N)(=O)=O)cc3)n(CC3CCCC3)c2c1` [Compound 719], the IC50 is reported as > 2000 nM. `CCn1c(-c2ccc(N3CCCS3(=O)=O)cc2)c(C#N)c2ccc(OCCN3CCCC3)cc21` [Compound 728] was tested, and the IC50 was < 500 nM. In the case of `CCn1c(-c2ccc(N3CCCS3(=O)=O)cc2)c(C#N)c2ccc(OCCN3CCOCC3)cc21` [Compound 730], the IC50 is reported as < 500 nM. In the case of `N#Cc1c(-c2ccc(N)cc2)n(CC2CC2)c2cc(OC(F)F)ccc12` [Compound 733], the IC50 is reported as > 2000 nM. With `COCCOC(=O)Nc1ccc(-c2c(C#N)c3ccc(OC(F)F)cc3n2CC2CC2)cc1` [Compound 739] the IC50 was > 2000 nM. `CCNC(=O)Nc1ccc(-c2c(C#N)c3ccc(OC(F)F)cc3n2CC2CC2)cc1` [Compound 740] showed an IC50 of 500 to 2000 nM. `CCCOC(=O)Nc1cccc(-c2c(C#N)c3ccc(OC(F)F)cc3n2CC2CC2)c1` [Compound 746] was tested, and the IC50 was > 2000 nM. For `CCCS(=O)(=O)N1CCc2ccc(-c3c(C#N)c4ccc(OC)cc4n3CC)cc21` [Compound 754], the IC50 was 500 to 2000 nM.

Same assay, conditions: bicistronic HCV replicon, determined by firefly luciferase signal, cells cultured with compound for 2 days; read-out: Replicon IC5Os
Work on `CCn1c(-c2ccc(NC(=O)c3ccc4nonc4c3)cc2)c(C#N)c2cc(OC)ccc21` [Compound 765] yielded an IC50 of 500 to 2000 nM. `CCS(=O)(=O)N(C(C)=O)c1ccc(-c2cc3ccc(OC)cc3n2C(=O)OC(C)(C)C)cc1` [Compound 769] was tested, and the IC50 was > 2000 nM.
